Experimental data from patent US20020137929A1, “1 - (3-heterocyclylphenyl) isothiourea, -isourea, -guanidine and -amidine herbicidal agents” (Intellectual Property Department, BASF Aktiengesellschaft, priority 1998, published 2002).

Tests used:
ORYSAT (Rice, Tebonnet) = test: Postemergence herbicidal evaluation; assay type: in vivo, Oryza sativa, (L.) Tebonnet; conditions: postemergence
Summary of the method: (§1)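 Compound is applied as a foliar spray to seedlings about two weeks old, formulated in equal parts acetone and water with 0.5% TWEEN 20 and delivered at 40 psi to give about 0.0156–0.500 kg per hectare. Injury is rated visually 0–9 after four to five weeks.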

ECHCG (Barnyardgrass) = test: Postemergence herbicidal evaluation; assay type: in vivo, Echinochloa crus-galli; conditions: postemergence
Summary of the method: as §1

MOOVA (Monochoria) = test: Preemergence weed control under flooded paddy conditions; assay type: in vivo, Monochoria vaginalis; conditions: rated 3-4 weeks after treatment
Summary of the method: (§2)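 Silt loam, seeds in top 0.5 cm; flood held 1.5-3 cm; test cpd as acetone/water 50/50 into flood water, ~0.0313-0.500 kg/ha a.i.; greenhouse 3-4 wk; visual 0-9 score vs control.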

CYPIR (Rice Flatsedge) = test: Postemergence weed control under flooded paddy conditions; assay type: in vivo, Cyperus iria; conditions: postemergence weeds, rated 3 to 4 weeks after treatment
Source text: Results of herbicide evaluation are expressed on a rating scale (0-9). The scale is based upon a visual observation of plant stand, vigor, malformation, size, chlorosis and overall plant appearance as compared with a control.
Plastic containers containing weeds which are 3 to 5 cm tall and rice seedlings at the 1.5 to 2.5 leaf stage are flooded with water. The water is maintained at 1.5 to 3 cm above the soil surface for the duration of the experiment. Test compounds are applied as aqueous/ acetone mixtures 50/50 v/v directly into the flood water to provide the equivalent of about 0.0313 to 0.500 kg/ha of active ingredient. The treated containers are placed on greenhouse benches and cared for in accordance with conventional greenhouse procedures. Three to four weeks after treatment, the test is terminated and each container is examined and herbicidal effect rated according to the rating system provided in Example 37. The compounds evaluated are reported by compound number given in Example 37.

[1] = tested on: GLXMAW (Soybean, Williams); test: Postemergence herbicidal evaluation; assay type: in vivo, Glycine max, (L.) Merr. cv Williams; conditions: postemergence
Summary of the method: as §1

SETVI (Foxtail, Green) [2] = test: Preemergence herbicidal evaluation; assay type: in vivo, Setaria viridis; conditions: rated 4-5 weeks after treatment; for SETVI rating: preemergence, 0-9 scale
Summary of the method: (§3)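 Herbicidal effect scored visually, 0-9, at 4 to 5 weeks against a control; compound applied preemergence by aqueous acetone spray to seeded soil at about 0.0156 to 0.500 kg/ha.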

ABUTH (Velvetleaf) [3] = test: Preemergence herbicidal evaluation; assay type: in vivo, Abutilon theophrasti; conditions: rated 4-5 weeks after treatment; for ABUTH rating: preemergence, 0-9 scale
Summary of the method: as §3

CASOB (Sicklepod) = test: Preemergence herbicidal evaluation; assay type: in vivo, Cassia obtusifolia; conditions: rated 4-5 weeks after treatment; for CASOB rating: preemergence, 0-9 scale
Summary of the method: as §3

SETVI (Foxtail, Green) [4] = test: Postemergence herbicidal evaluation; assay type: in vivo, Setaria viridis; conditions: postemergence
Summary of the method: as §1

AMBEL (Ragweed, Common) = test: Postemergence herbicidal evaluation; assay type: in vivo, Ambrosia artemisifolia; conditions: postemergence
Summary of the method: as §1

[5] = tested on: TRZAWR (Wheat, Winter, cv Riband); test: Postemergence herbicidal evaluation; assay type: in vivo, Triticum aestivum; conditions: postemergence
Summary of the method: as §1

ABUTH (Velvetleaf) [6] = test: Postemergence herbicidal evaluation; assay type: in vivo, Abutilon theophrasti; conditions: postemergence
Summary of the method: as §1

[7] = tested on: SAGPY (Arrowhead (Pygmaea)); test: Preemergence weed control under flooded paddy conditions; assay type: in vivo, Sagittaria pygmaea; conditions: rated 3-4 weeks after treatment
Summary of the method: as §2

Molecule `C=CCN1C(=O)C(CC(=O)NS(C)(=O)=O)SC1=Nc1cc(-n2c(=O)cc(C(F)(F)F)n(C)c2=O)c(F)cc1Cl` (centres unmarked) [Compound 96, 3-Allyl-2-{{2-chloro-5-[3,6-dihydro-3-methyl-2,6-dioxo-4-(trifluoromethyl)-1(2H)-pryimidinyl]-4-fluorophenyl}imino}-N-(methylsulfonyl)-4-oxo-5-thiazolidineacetamide] has an ORYSAT herbicidal rating (ORYSAT (Rice, Tebonnet); rate 0.0156 kg/ha) of 2.0, an ORYSAT herbicidal rating (ORYSAT (Rice, Tebonnet); rate 0.0313 kg/ha) of 2.0 and an ORYSAT herbicidal rating (ORYSAT (Rice, Tebonnet); rate 0.0625 kg/ha) of 1.5. For the same molecule, the ORYSAT herbicidal rating (ORYSAT (Rice, Tebonnet); rate 0.1250 kg/ha) was 2.0, the ECHCG herbicidal rating (ECHCG (Barnyardgrass); rate 0.0156 kg/ha) was 0.0 and the ECHCG herbicidal rating (ECHCG (Barnyardgrass); rate 0.0313 kg/ha) was 0.0. For the same molecule, the ECHCG herbicidal rating (ECHCG (Barnyardgrass); rate 0.0625 kg/ha) was 2.0, the ECHCG herbicidal rating (ECHCG (Barnyardgrass); rate 0.1250 kg/ha) was 2.0 and the “MOOVA herbicidal effect rating” value (MOOVA (Monochoria); 0.0313 kg/ha) was 2.0. The “MOOVA herbicidal effect rating” value (MOOVA (Monochoria); 0.0625 kg/ha) was 2.0, the “MOOVA herbicidal effect rating” value (MOOVA (Monochoria); 0.1250 kg/ha) was 3.0 and the “MOOVA herbicidal effect rating” value (MOOVA (Monochoria); 0.2500 kg/ha) was 3.0. For the same molecule, the “Herbicidal rating CYPIR” value (CYPIR (Rice Flatsedge); Rate 0.0313 kg/ha) was 0.0, the “Herbicidal rating CYPIR” value (CYPIR (Rice Flatsedge); Rate 0.0625 kg/ha) was 5.0 and the “Herbicidal rating CYPIR” value (CYPIR (Rice Flatsedge); Rate 0.1250 kg/ha) was 6.0. The “Herbicidal rating CYPIR” value (CYPIR (Rice Flatsedge); Rate 0.2500 kg/ha) was 6.0, the GLXMAW herbicidal rating ([1]; rate 0.0156 kg/ha) was 4.0 and the GLXMAW herbicidal rating ([1]; rate 0.0313 kg/ha) was 4.5. The GLXMAW herbicidal rating ([1]; rate 0.0625 kg/ha) was 4.0, the GLXMAW herbicidal rating ([1]; rate 0.1250 kg/ha) was 3.0 and the SETVI rating (SETVI (Foxtail, Green) [2]; 0.0313 kg/ha) was 1.0. The SETVI rating (SETVI (Foxtail, Green) [2]; 0.0625 kg/ha) was 1.0, the SETVI rating (SETVI (Foxtail, Green) [2]; 0.1250 kg/ha) was 0.0 and the SETVI rating (SETVI (Foxtail, Green) [2]; 0.2500 kg/ha) was 1.0. For the same molecule, the SETVI rating (SETVI (Foxtail, Green) [2]; 0.5000 kg/ha) was 4.0, the ABUTH rating (ABUTH (Velvetleaf) [3]; 0.0313 kg/ha) was 1.0 and the ABUTH rating (ABUTH (Velvetleaf) [3]; 0.0625 kg/ha) was 9.0. For the same molecule, the ABUTH rating (ABUTH (Velvetleaf) [3]; 0.1250 kg/ha) was 9.0, the ABUTH rating (ABUTH (Velvetleaf) [3]; 0.2500 kg/ha) was 9.0 and the ABUTH rating (ABUTH (Velvetleaf) [3]; 0.5000 kg/ha) was 9.0. For the same molecule, the CASOB rating (CASOB (Sicklepod); 0.0313 kg/ha) was 0.0, the CASOB rating (CASOB (Sicklepod); 0.0625 kg/ha) was 0.0 and the CASOB rating (CASOB (Sicklepod); 0.1250 kg/ha) was 0.0. It also gave a CASOB rating (CASOB (Sicklepod); 0.2500 kg/ha) of 4.0, a CASOB rating (CASOB (Sicklepod); 0.5000 kg/ha) of 9.0 and an SETVI herbicidal rating (SETVI (Foxtail, Green) [4]; rate 0.0156 kg/ha) of 0.0. It also gave an SETVI herbicidal rating (SETVI (Foxtail, Green) [4]; rate 0.0313 kg/ha) of 1.0, an SETVI herbicidal rating (SETVI (Foxtail, Green) [4]; rate 0.0625 kg/ha) of 7.0 and an SETVI herbicidal rating (SETVI (Foxtail, Green) [4]; rate 0.1250 kg/ha) of 4.0. It also gave an AMBEL herbicidal rating (AMBEL (Ragweed, Common); rate 0.0156 kg/ha) of 3.0, an AMBEL herbicidal rating (AMBEL (Ragweed, Common); rate 0.0313 kg/ha) of 4.0 and an AMBEL herbicidal rating (AMBEL (Ragweed, Common); rate 0.0625 kg/ha) of 7.0. It also gave an AMBEL herbicidal rating (AMBEL (Ragweed, Common); rate 0.1250 kg/ha) of 7.0, a TRZAWR herbicidal rating ([5]; rate 0.0156 kg/ha) of 2.0 and a TRZAWR herbicidal rating ([5]; rate 0.0313 kg/ha) of 2.5. For the same molecule, the TRZAWR herbicidal rating ([5]; rate 0.0625 kg/ha) was 2.5, the TRZAWR herbicidal rating ([5]; rate 0.1250 kg/ha) was 3.0 and the ABUTH herbicidal rating (ABUTH (Velvetleaf) [6]; rate 0.0156 kg/ha) was 1.0. It also gave an ABUTH herbicidal rating (ABUTH (Velvetleaf) [6]; rate 0.0313 kg/ha) of 7.0, an ABUTH herbicidal rating (ABUTH (Velvetleaf) [6]; rate 0.0625 kg/ha) of 9.0 and an ABUTH herbicidal rating (ABUTH (Velvetleaf) [6]; rate 0.1250 kg/ha) of 9.0.

`CC(C)COC(=O)CN1C(=O)CSC1=Nc1cc(-n2c(=O)cc(C(F)(F)F)n(C)c2=O)c(F)cc1Cl` [Compound 121, Isobutyl 2-{{2-chloro-5-[3,6-dihydro-3-methyl-2,6-dioxo-4-(trifluoromethyl)-1(2H)-pyrimidinyl]-4-fluorophenyl}imino}-4-oxo-3-thiazolidineacetate] was tested, and the “Herbicidal rating ORYSAT” value (ORYSAT (Rice, Tebonnet); rate 0.0156 kg/ha) was 2.0, the “Herbicidal rating ORYSAT” value (ORYSAT (Rice, Tebonnet); rate 0.0313 kg/ha) was 2.5 and the “Herbicidal rating ORYSAT” value (ORYSAT (Rice, Tebonnet); rate 0.0625 kg/ha) was 3.0. The “Herbicidal rating ECHCG” value (ECHCG (Barnyardgrass); rate 0.0156 kg/ha) was 0.0, the “Herbicidal rating ECHCG” value (ECHCG (Barnyardgrass); rate 0.0313 kg/ha) was 0.0 and the “Herbicidal rating ECHCG” value (ECHCG (Barnyardgrass); rate 0.0625 kg/ha) was 0.0. For the same molecule, the “herbicidal effect rating, MOOVA” value (MOOVA (Monochoria); 0.0313 kg/ha) was 9.0, the “herbicidal effect rating, MOOVA” value (MOOVA (Monochoria); 0.0625 kg/ha) was 9.0 and the “herbicidal effect rating, MOOVA” value (MOOVA (Monochoria); 0.1250 kg/ha) was 9.0. The “herbicidal effect rating, MOOVA” value (MOOVA (Monochoria); 0.2500 kg/ha) was 9.0, the “Herbicidal rating GLXMAW” value ([1]; rate 0.0156 kg/ha) was 6.0 and the “Herbicidal rating GLXMAW” value ([1]; rate 0.0313 kg/ha) was 8.0. For the same molecule, the “Herbicidal rating GLXMAW” value ([1]; rate 0.0625 kg/ha) was 8.0, the “Preemergence herbicidal rating SETVI” value (SETVI (Foxtail, Green) [2]; rate 0.0156 kg/ha) was 0.0 and the “Preemergence herbicidal rating SETVI” value (SETVI (Foxtail, Green) [2]; rate 0.0313 kg/ha) was 3.0. For the same molecule, the “Preemergence herbicidal rating SETVI” value (SETVI (Foxtail, Green) [2]; rate 0.0625 kg/ha) was 7.0, the “Preemergence herbicidal rating SETVI” value (SETVI (Foxtail, Green) [2]; rate 0.1250 kg/ha) was 9.0 and the “Preemergence herbicidal rating SETVI” value (SETVI (Foxtail, Green) [2]; rate 0.2500 kg/ha) was 9.0. For the same molecule, the “Preemergence herbicidal rating ABUTH” value (ABUTH (Velvetleaf) [3]; rate 0.0156 kg/ha) was 9.0, the “Preemergence herbicidal rating ABUTH” value (ABUTH (Velvetleaf) [3]; rate 0.0313 kg/ha) was 9.0 and the “Preemergence herbicidal rating ABUTH” value (ABUTH (Velvetleaf) [3]; rate 0.0625 kg/ha) was 9.0. The “Preemergence herbicidal rating ABUTH” value (ABUTH (Velvetleaf) [3]; rate 0.1250 kg/ha) was 9.0, the “Preemergence herbicidal rating ABUTH” value (ABUTH (Velvetleaf) [3]; rate 0.2500 kg/ha) was 9.0 and the “Preemergence herbicidal rating CASOB” value (CASOB (Sicklepod); rate 0.0156 kg/ha) was 0.0. For the same molecule, the “Preemergence herbicidal rating CASOB” value (CASOB (Sicklepod); rate 0.0313 kg/ha) was 0.0, the “Preemergence herbicidal rating CASOB” value (CASOB (Sicklepod); rate 0.0625 kg/ha) was 0.0 and the “Preemergence herbicidal rating CASOB” value (CASOB (Sicklepod); rate 0.1250 kg/ha) was 9.0. For the same molecule, the “Preemergence herbicidal rating CASOB” value (CASOB (Sicklepod); rate 0.2500 kg/ha) was 9.0, the “Herbicidal rating SETVI” value (SETVI (Foxtail, Green) [4]; rate 0.0156 kg/ha) was 8.0 and the “Herbicidal rating SETVI” value (SETVI (Foxtail, Green) [4]; rate 0.0313 kg/ha) was 8.0. For the same molecule, the “Herbicidal rating SETVI” value (SETVI (Foxtail, Green) [4]; rate 0.0625 kg/ha) was 9.0, the “Herbicidal rating AMBEL” value (AMBEL (Ragweed, Common); rate 0.0156 kg/ha) was 9.0 and the “Herbicidal rating AMBEL” value (AMBEL (Ragweed, Common); rate 0.0313 kg/ha) was 9.0. The “Herbicidal rating AMBEL” value (AMBEL (Ragweed, Common); rate 0.0625 kg/ha) was 9.0, the “herbicidal effect rating, SAGPY” value ([7]; 0.0313 kg/ha) was 0.0 and the “herbicidal effect rating, SAGPY” value ([7]; 0.0625 kg/ha) was 4.0. The “herbicidal effect rating, SAGPY” value ([7]; 0.1250 kg/ha) was 4.0, the “herbicidal effect rating, SAGPY” value ([7]; 0.2500 kg/ha) was 6.0 and the “Herbicidal rating TRZAWR” value ([5]; rate 0.0156 kg/ha) was 3.0. The “Herbicidal rating TRZAWR” value ([5]; rate 0.0313 kg/ha) was 4.0, the “Herbicidal rating TRZAWR” value ([5]; rate 0.0625 kg/ha) was 5.0 and the “Herbicidal rating ABUTH” value (ABUTH (Velvetleaf) [6]; rate 0.0156 kg/ha) was 9.0. For the same molecule, the “Herbicidal rating ABUTH” value (ABUTH (Velvetleaf) [6]; rate 0.0313 kg/ha) was 9.0 and the “Herbicidal rating ABUTH” value (ABUTH (Velvetleaf) [6]; rate 0.0625 kg/ha) was 9.0.
